According to patent publication US20180325157A1, “A DIETARY SUPPLEMENT COMPRISING BETA-GLUCAN AND CASEIN HYDROLSATE FOR IMPROVING HEALTH AND GROWTH PERFORMANCE IN A MAMMAL” (University College Dublin, National University of Ireland, …, priority 2015, published 2018):
Where “and” joins values, the source holds several entries; their conditions need not be identical. Equal entries are not always repeated.

What was measured:
weaning piglets = test: Body weight and growth performance of weaned piglets over 12 days; assay type: in vivo, pig
Excerpt: This study was designed in a completely randomized block design with 5 dietary groups. The dietary groups are as follows: 1) control diet, 2) control diet+ZnO, 3) control diet+casein hydrolysate, 4) control diet+(3 glucan and 5) control diet+casein hydrolysate+β glucan. The control diet used in this study was based on previous work by Walsh et al. (2013). The levels of casein hydrolysate used were based on previous experiment and the levels of β glucan, derived from yeast (S. cerevisiae), used were based on a previous study by Sweeney et al. (2012). Diets were formulated to contain similar concentrations of digestible energy (DE) (14.5 MJ/kg) and standardized ileal digestible (SID) lysine (12.5 g/kg) contents. All amino acids requirements were met relative to SID lysine (NRC, 1998). All diets were milled on site and fed in meal form for 12 days after weaning.
Forty weaned piglets [progeny of Landrace boars×(Large White×Landrace sow)] were weighed and blocked on the basis of initial live body weight (7.3±0.2 kg) and assigned to 1 of the 5 dietary treatment groups (n=8). Piglets were weighted individually at the beginning of the experiment (day 0=day of weaning), day 6 and day 12. The piglets were housed in groups of two on fully slatted floors (1.68×1.22 m). The ambient environmental temperature within the house was thermostatically controlled at 30° C. The feed was available ad libitum and water was available via nipple drinkers. Feed was available up to the final weighing and all remaining feed was weighed back for the purpose of calculating feed efficiency.
The current study was a complete randomised design experiment and data analysed using the general linear model procedure of the Statistical Analysis Institute (SAS, 2004). The individual pen represented the experimental unit for the performance analysis. All the data were checked initially for normality using the PROC univariate procedure in SAS (2004). The microbial counts were log transformed before statistical analysis. Probability values of less than 0.05 were used as the criterion for statistical significance. Intercorrelations between cytokines and cytokine regulatory genes was analysed in a correlation matrix using PASW 18 (SPSS for Windows, […]; SPSS, Chicago, Ill.) and the Pearson's r value greater than 0.400 was considered to be positively correlated. All results are presented in the tables as least square means±standard error of the means (SEM).

Bacteroidetes = test: qPCR of bacterial groups in digesta: Bacteroidetes; assay type: in vivo, pig; settings: caecal digesta, day 12
Protocol: (§1) At day 12, all the pigs were sacrificed following a lethal injection of Euthatal (pentobarbitone sodium BP-Merial Animal Ltd, Sandringham House, Essex, UK) at a rate of […] live body weight. In sterile conditions, the digestive tract was removed and tissue samples from colon were placed in sterile phosphate buffer saline (PBS) (Oxoid, Basingstoke, UK). The digesta samples were recovered aseptically from caecum and colon and transported on ice to proper storage conditions.
(§2) To evaluate the effect of feed additives on the microbiota, samples of digesta contents (approximately 10 g) were recovered from the caecum and colon of each animal in sterile conditions immediately after slaughter. […] Quantity and quality of DNA were assessed using a Nanodrop (Nanodrop, ND1000; Thermo Scientific, Wilmington, Del.).
(§3) A combined aliquot of bacterial genomic DNA from all animals were used for preparation of standard curves. […] Thermal cycling conditions used were similar to the condition described below for quantitative real-time PCR. Standard curves were subsequently generated by quantitative real-time PCR of serial dilutions of these amplicons using the same genus and species-specific primers to permit absolute quantification based on gene copy number (Lee et al., 2006). […] The dry matter (DM) of the digesta was determined after drying overnight at 103° C. […]

Bifidobacteria spp. = test: qPCR of bacterial groups in digesta: Bifidobacteria; assay type: in vivo, pig; settings: day 12
Protocol: as §1, §2, §3

[1] = system: selected panel of bacterial groups; test: qPCR of the other selected bacterial groups in colonic digesta; assay type: in vivo, pig; settings: day 12
Protocol: as §1, §2, §3

IL-1α = test: Cytokine gene expression in colonic tissue (qPCR): IL-1α; assay type: in vivo, porcine; settings: day 12, normalised relative quantity
Protocol: (§4) Tissue samples were collected from the mesenteric side of the colon, rinsed with ice-cold sterile phosphate-buffered saline (Oxoid, Basingstoke, UK) and stripped of overlying smooth muscle. The samples were then cut into small pieces using a sterile scalpel blade and stored in 15 ml of RNAlater™ (Applied biosystems, Foster city, CA, USA) overnight followed by storage at −20° C. prior to RNA extraction. Total RNA was extracted from the colonic tissue samples using a GenElute Mammalian Total RNA Miniprep Kit (Sigma-Aldrich Corporation, St Louis, Mo., USA) according to the manufacturer's instructions. […] The total RNA was quantified and assessed for purity using the NanoDrop-ND1000 Spectrophotometer (Thermo Fisher Scientific Inc. MA, USA). The quality of the total RNA was determined by visualizing on an ethidium bromide stained 1% agarose gel. […]
(§5) qPCR was carried out to quantify the following two sets of targets: the first set of target are a selected panel of cytokine genes; Interleukins (IL-1a, IL-1β, IL-4, IL-6, IL-8, IL-10, IL-17A, IL-21), Interferon (IFN-γ), Tumor Necrosis Factor (TNFα), Transforming growth factor (TGF-β) and Forkhead box P3 (FOXP3). […]
(§6) Mean Ct values were converted to relative quantities using the formula, Relative quantity=(PCR efficiency) ΔCt, where ΔCt is the change in the Ct values of the sample relative to the highest expression (minimum Ct value). […]

IL-1β = test: Cytokine gene expression in colonic tissue (qPCR): IL-1β; assay type: in vivo, porcine; settings: day 12, normalised relative quantity
Protocol: as §4, §5, §6

IL-8 = test: Cytokine gene expression in colonic tissue (qPCR): IL-8; assay type: in vivo, porcine; settings: day 12, normalised relative quantity
Protocol: as §4, §5, §6

IL-17 = test: Cytokine gene expression in colonic tissue (qPCR): IL-17; assay type: in vivo, porcine; settings: day 12, normalised relative quantity
Protocol: as §4, §5, §6

TGF-β = test: Cytokine gene expression in colonic tissue (qPCR): TGF-β; assay type: in vivo, porcine; settings: day 12, normalised relative quantity
Protocol: as §4, §5, §6

weaning piglet = settings: previous experiments, cited from earlier work

In the case of [O]=[Zn] [ZnO, zinc oxide], the “Gain to feed (Day 0-12)” value (weaning piglets; Day 0-12) is reported as 0.26 kg/kg, the “OADG (overall average daily gain) (Day 0-12)” value (weaning piglets; Day 0-12) is reported as 0.10 kg/day and the “OFI (overall feed intake) (Day 0-12)” value (weaning piglets; Day 0-12) is reported as 0.37 kg/day. For the same molecule, the “Weight (kg) Weight 0-6” value (weaning piglets; Weight 0-6) was 7.53 kg, the “Weight (kg) Weight 6-12” value (weaning piglets; Weight 6-12 (end of experiment)) was 8.64 kg and 8.64^a kg and the “abundance of Bacteroidetes copy numbers” value (Bacteroidetes) was 12.60 log10 bacteria/g DM digesta. For the same molecule, the Bifidobacteria spp. numbers (Bifidobacteria spp.; caecal digesta) was 8.94 log10 bacteria/g DM digesta, the “abundance of Bifidobacteria copy numbers” value (Bifidobacteria spp.; colonic digesta) was 8.96 log10 bacteria/g DM digesta and the “bacterial copy numbers of any other bacterial group” value [1] was “No change”. For the same molecule, the IL-1α expression (IL-1α) was 0.006 RQ, the IL-1β expression (IL-1β) was 0.010 RQ and the IL-8 expression (IL-8) was 0.003 RQ. The IL-17 expression (IL-17) was 0.061 RQ, the TGF-β expression (TGF-β) was 0.183 RQ and the “anti-inflammatory activity in the weaning piglet gut” value (weaning piglet; weaning piglet gut) was “anti-inflammatory activity”. For the same molecule, the “overall growth performance parameters” value (weaning piglet; weaning piglet) was “improved”.
